The results in this text go back to PubChem BioAssay (NCI).

Test systems include M14 melanoma; TK-10 renal; MCF7 breast; HL-60(TB) leukemia; HOP-92 NSCLC; KM12 colon; COLO 205 colon; ACHN renal; NCI-H460 lung; RXF 393 renal.
Test in all cases: NCI tumour cell line growth inhibition, 48 h

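Exposure lasted 48 hours, with cells grown in 96-well plates and compounds tested at five concentrations. The concentration for 50% growth inhibition is given as GI50. TGI: concentration producing complete growth inhibition.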 Bounds are passed on as bounds.

In the case of `COc1cc(C2NC(=O)c3ccccc3N2)ccc1OCCCCCOc1c(OC)cc(C2=NOC(c3cc(OC)c(OC)c(OC)c3)C2)cc1OC` (stereo not given), the GI50 is 20.4 µM in the assay on M14 melanoma; greater than 100 µM in the assay with TK-10 renal; 0.356 µM with MCF7 breast; 11.7 µM in the assay with HL-60(TB) leukemia; 60.2 µM in the assay with HOP-92 NSCLC; 7.59 µM in the assay on KM12 colon. The results for the GI50 with COLO 205 colon, with ACHN renal and with NCI-H460 lung were greater than 59 µM, 0.556 µM and 14.2 µM, respectively. The TGI with M14 melanoma was greater than 93 µM; with TK-10 renal, greater than 100 µM; with MCF7 breast it was greater than 100 µM; in the assay on HL-60(TB) leukemia, greater than 53.9 µM; with HOP-92 NSCLC it was greater than 100 µM; in the assay with KM12 colon, 98.8 µM. In addition, the TGI is greater than 100 µM in the assay on COLO 205 colon, greater than 100 µM with ACHN renal and 67.2 µM in the assay with NCI-H460 lung.

In the case of `COc1ccc(-c2cc(=O)c3c(OC)c(OC)c(OC)cc3o2)cc1`, the TGI with M14 melanoma is greater than 100 µM; with TK-10 renal, greater than 100 µM; in the assay with MCF7 breast, greater than 100 µM; in the assay with HL-60(TB) leukemia, greater than 100 µM; in the assay on HOP-92 NSCLC, 79.9 µM; in the assay with COLO 205 colon, 51.7 µM. The TGI in the assay on RXF 393 renal is greater than 100 µM; in the assay on ACHN renal, greater than 100 µM; in the assay with NCI-H460 lung, 81.4 µM.

Regarding `C[C@]12CC[C@H]3[C@@H](CC=C4C[C@@H](O)CC[C@@]43C)[C@@H]1CC[C@@H]2N(CCO)CCO`, the TGI in the assay on M14 melanoma, in the assay with TK-10 renal, in the assay with MCF7 breast, with HOP-92 NSCLC, in the assay with KM12 colon and in the assay on COLO 205 colon was greater than 100 µM throughout. Also, the TGI in the assay on RXF 393 renal, in the assay with ACHN renal and with NCI-H460 lung was greater than 100 µM in each case.

On to `N#Cc1ccc(O)c(C2=NCC(c3cccc(Oc4ccccc4)c3)O2)c1` (stereo not given), for which the GI50 in the assay on MCF7 breast is 0.792 µM; in the assay on HL-60(TB) leukemia it was 0.852 µM; in the assay on HOP-92 NSCLC, 1.81 µM; in the assay on KM12 colon it was 0.687 µM; in the assay on COLO 205 colon it was 3.13 µM; in the assay with RXF 393 renal it was 1.53 µM. Besides, the GI50 was 0.615 µM in the assay on ACHN renal and 0.434 µM with NCI-H460 lung. Further, the TGI worked out at 15.8 µM with MCF7 breast; 9.29 µM in the assay on HL-60(TB) leukemia; 37 µM in the assay on HOP-92 NSCLC; 23.1 µM in the assay with KM12 colon; 15.6 µM in the assay on COLO 205 colon; 9.56 µM in the assay with RXF 393 renal. Moreover, the results for the TGI in the assay on ACHN renal and in the assay with NCI-H460 lung were 14.3 µM and 10.2 µM, respectively.

As to `CCN(CC)c1ccc(/C=C/c2ccc3cc(C)ccc3[n+]2CC)cc1`, the GI50 was 0.182 µM with M14 melanoma; 0.146 µM in the assay on TK-10 renal; 0.0773 µM with MCF7 breast; 0.0297 µM in the assay with HL-60(TB) leukemia; 0.147 µM in the assay on HOP-92 NSCLC; 0.103 µM with KM12 colon. The GI50 was 0.124 µM in the assay with COLO 205 colon, 0.216 µM with RXF 393 renal and 0.336 µM in the assay on ACHN renal. Further, the TGI with M14 melanoma worked out at 1.63 µM; in the assay on TK-10 renal it was 11.8 µM; in the assay on MCF7 breast it was 3.26 µM; in the assay with HL-60(TB) leukemia, 0.429 µM; in the assay with HOP-92 NSCLC it was 0.87 µM; in the assay with KM12 colon, 1.89 µM. Also, the TGI in the assay on COLO 205 colon was determined as 0.516 µM; with RXF 393 renal, 3.41 µM; with ACHN renal it was 5.67 µM.

For the compound `Nc1cc(N)c2nc(-c3ccccc3)c(Nc3ccc(Cl)c(Cl)c3)nc2c1`, the GI50 is 14.7 µM in the assay with M14 melanoma; 13.7 µM in the assay with TK-10 renal; 4.96 µM in the assay on MCF7 breast; 2.59 µM in the assay on HL-60(TB) leukemia; 5.89 µM in the assay with KM12 colon; 11.7 µM with COLO 205 colon. Besides, the results for the GI50 with RXF 393 renal and in the assay on NCI-H460 lung were 6.23 µM and 8.27 µM, respectively. Also, the TGI with M14 melanoma is 60 µM; with TK-10 renal, 30.1 µM; in the assay on MCF7 breast it was 21.1 µM; with HL-60(TB) leukemia, 71.7 µM; with KM12 colon, 24.6 µM; in the assay on COLO 205 colon, 31.3 µM. In addition, the results for the TGI with RXF 393 renal and in the assay on NCI-H460 lung were 31.2 µM and 22.9 µM, respectively.

With `C[C@@H]1OC(O)[C@@H](F)[C@H](O)[C@@H]1O` (stereo not given in full), the GI50 in the assay on M14 melanoma, in the assay on TK-10 renal, in the assay on MCF7 breast, in the assay on HL-60(TB) leukemia, with HOP-92 NSCLC and in the assay with KM12 colon was greater than 100 µM in each case. Moreover, the GI50 with COLO 205 colon, in the assay on ACHN renal and with NCI-H460 lung was greater than 100 µM throughout. The TGI in the assay on M14 melanoma, with TK-10 renal, in the assay with MCF7 breast, in the assay with HL-60(TB) leukemia, with HOP-92 NSCLC and with KM12 colon was greater than 100 µM in each case. For the same compound, the TGI in the assay on COLO 205 colon, in the assay on ACHN renal and with NCI-H460 lung was greater than 100 µM in each case.

Turning to `Oc1c(CN2CCC(N3CCCCC3)CC2)cc(Cc2cc(CN3CCC(N4CCCCC4)CC3)c(O)c3ncccc23)c2cccnc12`, the GI50 was 1.11 µM in the assay with M14 melanoma; 1.14 µM with TK-10 renal; 0.865 µM in the assay on MCF7 breast; 3.38 µM in the assay on HOP-92 NSCLC; 0.677 µM with KM12 colon; 0.372 µM in the assay on COLO 205 colon. For the same compound, the GI50 in the assay with RXF 393 renal is 1.94 µM; in the assay with ACHN renal, 1.4 µM; with NCI-H460 lung it was 0.287 µM. The TGI in the assay on M14 melanoma came out at 2.75 µM; with TK-10 renal, 10.3 µM; in the assay on MCF7 breast, 10.3 µM; with HOP-92 NSCLC it was 21 µM; with KM12 colon it was 14.6 µM; in the assay with COLO 205 colon it was 1.94 µM. For the same compound, the values for the TGI in the assay on RXF 393 renal, with ACHN renal and with NCI-H460 lung were 10.2 µM, 11.7 µM and 11.5 µM, respectively.

For the compound `O=C1c2cc(Cl)ccc2S(=O)(=O)c2c(NCCCNCCO)nc3ccccc3c21`, the GI50 in the assay on M14 melanoma was 1.95 µM; with TK-10 renal, 1.21 µM; in the assay with MCF7 breast, 1.52 µM; with HL-60(TB) leukemia it was 2.1 µM; in the assay on HOP-92 NSCLC it was 1.01 µM; in the assay with KM12 colon, 1.59 µM. For the same compound, the GI50 was 1.01 µM in the assay on COLO 205 colon, 0.493 µM in the assay with ACHN renal and 2.02 µM in the assay with NCI-H460 lung. The TGI was 4.9 µM in the assay with M14 melanoma; 2.46 µM in the assay with TK-10 renal; 3.71 µM in the assay on MCF7 breast; 6.79 µM with HL-60(TB) leukemia; 2.44 µM with HOP-92 NSCLC; 3.3 µM with KM12 colon. The TGI in the assay on COLO 205 colon came out at 2.35 µM; with ACHN renal, 1.63 µM; in the assay with NCI-H460 lung, 4.73 µM.
